According to ChEMBL document CHEMBL1150947, “Indole alkaloids from the tunicate Aplidium meridianum” (J Nat Prod, 1998):

Assay: Cytotoxicity against mouse LMM3 cells
Type: functional, cell-based

## Nc1nccc(-c2c[nH]c3cc(Br)cc(O)c23)n1 [MERIDIANIN B]
  IC50: 11.4 µM

## Nc1nccc(-c2c[nH]c3ccc(Br)cc23)n1 [MERIDIANIN C]
  IC50: 9.3 µM
